≈ marks a conversion by molar mass, not a printed value. Entries after “also recorded” stand apart in the source; their conditions may differ. Where a SMILES comes first, the peptide text is derived from it. [ ]: non-standard residue; d: D form.
Key:
[1] = test system: clinical strains of C. glabrata; assay: MIC, clinical yeast strains, C. glabrata; format: cell-based, Candida glabrata; set-up: unit: μg/ml
Description: (§1) Minimum inhibition concentrations (MICs) were determined against Escherichia coli (ATCC 25922), Staphylococcus aureus (ATCC 25923), Klebsiella pneumoniae (ATCC 10031) and Pseudomonas aeruginosa (ATCC 27853). Also clinical strains of E. coli, K. pneumoniae, E. cloacae, P. aeruginosa, Serratia marcescens, Proteus mirabilis, S. pneumoniae, Acinetobacter baumannii, A. johnsonii and S. aureus were used for MICs assays. Additionally, clinical strains of yeast including Candida albicans, C. glabrata, C. parapsilosis and C. quillermondiae were used. The susceptibility of these microorganisms to Chain peptides were determined using micro broth dilution assay. Colonies of the respective microorganism from Muller Hinton (MH) agar plates incubated overnight were suspended in MH broth media and final concentration of microorganism was adjusted to 5.0×10^5 cfu/ml. An aliquot of 10 μl of each Chain peptide, or gentamicin, tetracycline as reference antibiotics were added in differing concentrations along with 90 μl of bacterial suspension to 96 well polypropylene plates and incubated at 37° C. for 20 to 24 hours. Concentrations of Chain peptides and reference antibiotics ranged from 0.125 to 128 μg/ml and the MICs were recorded as the lowest concentration with no visual growth of bacteria. Similarly, antifungal MICs were tested in Potato dextrose broth.
(§2) Clinical strains of yeasts including Candida albicans, C. glabrata, C. parapsilosis and C. quillermondiae were also tested with the 12 Chain peptides. The minimum inhibitory concentration (MICs) varied between these peptides and are presented in Tables 4a, 4b, 4c and 5a, 5b, 5c. Peptides Chain 105, 201 and 308 are broad spectrum antimicrobials with MICs between 0.5-32 μg/ml against all the bacteria and yeasts tested, except Serratia marcescens and Proteus mirabilis, against which the MICs were between 64-128 μg/ml. Peptide Chain 306 has narrow spectrum activity against E.coli at 1 μg/ml and for the rest of the bacterial strains at >32 μg/ml (FIG. 10).

[2] = test system: clinical strains of C. quillermondiae; assay: MIC, clinical yeast strains, C. quillermondiae; format: cell-based; conditions: C. quillermondiae clinical yeast strain 1
Description: as §1, §2

[3] = test system: clinical strains of C. parapsilosis; assay: MIC, clinical yeast strains, C. parapsilosis; format: cell-based, Candida parapsilosis; set-up: unit: μg/ml
Description: as §1, §2

[4] = test system: clinical strains of Acinetobacter johnsonii; format: cell-based
Description: as §1, §2

[5] = test system: clinical strains of Candida albicans; assay: MIC, clinical yeast strains, Candida albicans; format: cell-based; set-up: unit: μg/ml
Description: as §1, §2

[6] = test system: gram positive and negative bacteria; assay: MIC by micro broth dilution, summary over the strains tested; format: cell-based
Description: as §1

human erythrocytes = format: cell-based
Description: In hemolysis assays, the ability of peptides at 128 μg/ml concentration to lyse human erythrocytes to release hemoglobin was measured. The peptides described here preferably have low hemolytic activity (0.2 to 3.8% hemolysis) in mammal body. […] These peptides are useful as antimicrobial drugs as they show little or no side effects at concentrations needed to kill bacteria.
Minimum inhibition concentrations (MICs) were tested by microbroth dilution method and Chain 104, 105 and 109 inhibited the growth of Escherichia coli (ATCC 25922), Staphylococcus aureus (ATCC 25923), Klebsiella pneumoniae (ATCC 10031) and Pseudomonas aeruginosa (ATCC 27853) between 1-8 μg/ml respectively (Tables 3a, 3b and 3c). The membranolytic activities of the peptides were tested by measuring the release of hemoglobin from erythrocytes of fresh blood donated by voluntiers. Hemoglobin levels were determined spectrometrically by taking OD at 540 nm by following the protocol of Schmidtchen et al., 2011.

[7] = test system: Penicillium chrysogenum (DSM 1075); assay: Radial diffusion assay, antifungal, P. chrysogenum; format: cell-based; conditions: 20 μg
Description: (§3) The radial diffusion assay (RDA) was carried out as described by Andersen et al. (2010). Briefly, 30 ml of 1/10 Muller-Hinton broth (MHB) supplemented with 1% agarose and 5.0×10^5 CFU/ml S. aureus or E. coli or K. pneumoniae, P. aeruginosa cells was poured into a single-well omnitray (Nunc) and overlaid with a TSP 96-well plate. One hundred μg of each synthesized peptide was tested. The peptides were also tested against Fusarium oxysporum and Verticillium dahliae, for which 1/3 potato dextrose agarose was used. To test the synergistic effect of peptides, each peptide was mixed in equimolar concentrations. Mix1 (met1-12), Mix2 (met3, 4 and 5), Mix3 (met 8, 9 and 10), Mix 4 (met11, 12) and Mix5 (8, 9, 10, 11, 12) were prepared and tested against E. coli and S. aureus. Gentamicin and vancomycin were included as positive controls for bacteria and amphotericin B was used as the control for fungi.
(§4) By using rational design techniques, we have designed variants of peptides by incorporating or replacing various amino acids in the original peptides. Thus, we have designed and modified Chain 100, Chain 200 and Chain 300 with tryptophan (W), arginine (R) and lysine (K) at various positions to improve antimicrobial activity (FIGS. 4a-c and 5a-c). In some peptides we have also used other amino acids such as Leucine (L), Cysteine (C), Isoleucine (I), Phenylalanine (F) and Alanine (A). For synthesis, 32 variants and 3 original peptides were selected based on the various parameters such as positive charge, aliphatic index and instability index. Peptides variants were tested by using radial diffusion assay against Escherichia coli (ATCC 25922), Staphylococcus aureus (ATCC 25923), Klebsiella pneumoniae (ATCC 10031) and Pseudomonas aeruginosa (ATCC 27853) (FIGS. 6a-c). The zone of inhibition ranged between 10-18 mm for Escherichia coli and Staphylococcus aureus, 6-18 mm & 8-18 mm for Pseudomonas aeruginosa and Klebsiella pneumonia respectively (Table 2). For Gentamicin it was between 22-24 mm. Antifungal activity was tested for promising antibacterial peptides (Chains 104, 105, 109, 201, 204, 306, 307, 308, 310) against Aspergillus flavus (DSM 1959) and Penicillium chrysogenum (DSM 1075). All these peptides has activity at a concentration of 20 μg, Amphotericin B was used as a positive control at 20 μg (FIG. 7).

[8] = test system: Aspergillus flavus (DSM 1959); assay: Radial diffusion assay, antifungal, A. flavus; format: cell-based; conditions: 20 μg
Description: as §3, §4

S. aureus COL (MRSA) = assay: Synergistic activity with Ertapenem (4 μg/ml) against MRSA, MIC; format: cell-based, Staphylococcus aureus; conditions: Ertapenem 4 μg/ml; L-form
Description: as §1
Peptides Chain 104, Chain 105, Chain 201, Chain 308, Chain 310 were tested against antibiotic-sensitive strains of S. aureus RN4220 and methicillin resistant strains of S. aureus COL (MRSA). Chain peptides comprising of either L- or D-form amino acids were tested against these bacteria, and the D-form peptides were found have better activity compared to L-form (Table 6). Synergistic activity of chain peptides along with Ertapenem (4 μg/ml) was tested to know whether it will influence the activity against MRSA strains. […] Chain 310 has the best antibacterial activity against the MRSA strains with a MIC of 0.06 & 0.03 μg/ml along with Ertapenem (4 μg/ml) for both forms of L and D-peptides (Table 6).

S. aureus = assay: Antibacterial activity analysis of En-MAP1 protein; format: cell-based, Staphylococcus aureus
Description: Both folded and unfolded proteins were tested for antibacterial activity against S. aureus by pipetting 10 μg of protein on the S. aureus culture on an LB plate. The activity was also tested in folded and unfolded protein digested with trypsin in 0.01% acetic acid at concentrations of 30 and 60 μg/ml.

Molecule: CC[C@@H](C)[C@@H](NC(=O)[C@@H](CCSC)NC(=O)[C@@H](C)NC(=O)[C@@H](CCCNC(=N)N)NC(=O)[C@@H](Cc1c[nH]c2ccccc12)NC(=O)[C@@H](CCCCN)NC(=O)[C@H](N)CCCNC(=N)N)C(=O)N[C@H](CCCNC(=N)N)C(=O)N[C@H](CC(C)C)C(=O)N[C@H](Cc1c[nH]cn1)C(=O)N[C@H](C)C(=O)N[C@H](CCCCN)C(=O)N[C@H](Cc1c[nH]c2ccccc12)C(=O)N[C@H](CC(C)C)C(=O)N[C@H](CCCNC(=N)N)C(=O)N[C@H](CCCCN)C(=O)O [Chain105D] (H-[dR][dK][dW][dR][dA][dM][dI][dR][dL][dH][dA][dK][dW][dL][dR][dK]-OH)
- Minimum inhibitory concentration ([1]; C. glabrata clinical yeast strain 1): 16
- Minimum inhibitory concentration ([1]; C. glabrata clinical yeast strain 2): 16
- Minimum inhibitory concentration ([1]; C. glabrata clinical yeast strain 3): 8
- Minimum inhibitory concentration ([1]; C. glabrata clinical yeast strain 4): 32
- Minimum inhibitory concentration [2]: 8
- Minimum inhibitory concentration ([3]; C. parapsilosis clinical yeast strain 1): 8
- Minimum inhibitory concentration ([3]; C. parapsilosis clinical yeast strain 2): 8
- Minimum inhibitory concentration ([3]; C. parapsilosis clinical yeast strain 3): 8
- Minimum inhibitory concentration ([3]; C. parapsilosis clinical yeast strain 4): 4
- Minimum inhibitory concentration, Acinetobacter johnsonii strain 1 [4]: 4 µg/mL (≈ 1.86 µM)
- Minimum inhibitory concentration ([5]; Candida albicans clinical yeast strain 1): 32
- Minimum inhibitory concentration ([5]; Candida albicans clinical yeast strain 2): 16
- Minimum inhibitory concentration ([5]; Candida albicans clinical yeast strain 3): 32
- Minimum inhibitory concentration ([5]; Candida albicans clinical yeast strain 4): 32
- Minimum inhibitory concentration ([5]; Candida albicans clinical yeast strain 5): 32

Molecule: CC(C)C[C@H](NC(=O)[C@H](Cc1c[nH]c2ccccc12)NC(=O)[C@H](Cc1ccccc1)NC(=O)[C@H](Cc1c[nH]c2ccccc12)NC(=O)[C@H](CCCCN)NC(=O)[C@H](CC(C)C)NC(=O)[C@@H](N)CCCNC(=N)N)C(=O)N[C@@H](Cc1ccccc1)C(=O)N[C@@H](CCCNC(=N)N)C(=O)N[C@@H](CCCCN)C(=O)N[C@@H](CCCNC(=N)N)C(=O)O [Chain307] (H-RLKWFWLFRKR-OH; N-terminus and C-terminus assumed)
- activity against the four ATCC strains [6]: very active
- side effects to humans as tested by hemolysis assay (human erythrocytes): little side effects
- antifungal activity against Penicillium chrysogenum [7]: has activity; also recorded: particularly active
- antifungal activity against Aspergillus flavus [8]: has activity; also recorded: particularly active

Molecule: CC(C)C[C@H](NC(=O)[C@H](CCCCN)NC(=O)[C@H](CCCCN)NC(=O)[C@H](Cc1ccccc1)NC(=O)[C@H](CC(C)C)NC(=O)[C@H](Cc1c[nH]c2ccccc12)NC(=O)[C@H](CCCNC(=N)N)NC(=O)[C@H](Cc1c[nH]c2ccccc12)NC(=O)[C@H](CCCCN)NC(=O)[C@H](CCCNC(=N)N)NC(=O)[C@@H](N)CCCCN)C(=O)O [Chain310] (H-KRKWRWLFKKL-OH; N-terminus and C-terminus assumed)
- activity against the four ATCC strains [6]: very active
- side effects to humans as tested by hemolysis assay (human erythrocytes): little side effects
- MIC against MRSA strains along with Ertapenem, L-peptide (S. aureus COL (MRSA)): 0.06 µg/mL
- antifungal activity against Penicillium chrysogenum [7]: has activity; also recorded: particularly active
- antifungal activity against Aspergillus flavus [8]: has activity; also recorded: particularly active

B1: En-MAP1: protein of 549 amino acids from an endophyte of Empetrum nigrum, GenBank KC466596 (protein, listed as Empetrum nigrum)
chain: MRLVAHPVPDAPLYALMIKACSMGIPQPNDNLWKPRNPLLAKEEKTSKRGRTAPDTERALDLFREMTLRYNIRPTAEVYTAIIAACVKRDDMYDKGFGLFKKMVELERNRMSSEGHDSTSFAPTRATYNALLRGCARNKDLLRARWILAEMLRTAQAKWQEFMEKSKKGEEGVQEWELLEVEEMRPDTNTMAFLFYTYASHTTSSKAVPETEGKKELEGKAEERASEVTSVSPVSEPPEPMDESKLVYSLPTSSQAILREVTSLLDRIKSDQGQQSNLLSSVQINSKLLNSYIAVLSAHCRSSQVVERISEVVVGTKENPKSLFEETGTSVNGYTCFTVIDACGMMEHSPDTYHLACEMWQRWLSLVENATFHRENPLKAKEIGLDSRTISDCWSAMIRLHAKYNQVDEAMKLVHEFARLYPPASLFNSLTFEPSSTSSSSLSPRKGVQEISPLFSSTSLTHSIRGRDISRIQNTMSQDPTLQFRAVQILHLRLVELETRPKDLAYLSWLLKSYEHQLQPKRPKSLQGDLFTSRQAAYNRIVQQRTSSR
- antibacterial activity against S. aureus, trypsin digest of folded protein (S. aureus; folded full protein digested with trypsin): antibacterial activity was observed for up to two hours after digestion
- antibacterial activity against S. aureus (S. aureus; folded protein or expressed fragments): no activity was observed
- antibacterial activity against S. aureus, trypsin digest of unfolded protein (S. aureus; unfolded protein digested with trypsin): No activity was detected

Reference: patent US11096985B2, “Antimicrobial peptides, their variants and uses” (priority 2015, dated 2021)
